Patent US10669258B2, “3-sulfonyl-5-aminopyridine-2,4-diol APJ agonists” (BRISTOL-MYERS SQUIBB COMPANY, priority 2016, dated 2020)
Where two headings read alike, the source gives them in different places.

Molecular target: T1, human APJ receptor (Homo sapiens, UniProt P35414)
T1 construct: expressed in transfected cells; host or cells: HEK293
T1 sequence (P35414 1-380): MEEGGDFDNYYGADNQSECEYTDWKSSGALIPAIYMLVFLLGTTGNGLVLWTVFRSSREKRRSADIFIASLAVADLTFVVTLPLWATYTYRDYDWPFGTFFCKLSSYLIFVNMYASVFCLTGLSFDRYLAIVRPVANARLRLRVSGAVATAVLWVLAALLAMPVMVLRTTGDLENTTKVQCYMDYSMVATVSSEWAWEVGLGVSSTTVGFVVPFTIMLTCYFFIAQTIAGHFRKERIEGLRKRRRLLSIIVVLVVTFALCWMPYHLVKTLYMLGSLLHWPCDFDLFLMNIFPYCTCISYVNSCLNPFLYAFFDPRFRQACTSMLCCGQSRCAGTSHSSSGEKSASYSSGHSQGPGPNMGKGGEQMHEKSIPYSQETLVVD
Assay: Intracellular cAMP accumulation assay (APJ hcAMP, HTRF)
Format: cell-based
Description: Intracellular cAMP Accumulation Assay
HEK293 cells stably expressing human APJ receptor were used to assess the activity of compounds. Cultured cells were detached and resuspended in the cAMP Homogeneous Time-Resolved Fluorescence (HTRF) assay buffer (Cisbio cat; #62AM4PEJ). The assay was performed in 384-well assay plates (Perkin-Elmer; cat #6008289) according to assay protocol provided by the manufacturer. Serial dilutions of a compound together with assay buffer containing […] IBMX and 2 μM forskolin were added to each well containing 5,000 cells and incubated for 30 minutes at room temperature. Subsequently, cAMP D2 reagent was added in the lysis buffer followed by the EuK antibody (Cisbio; cat #62AM4PEJ) and incubated for 60 min. The fluorescence emission ratio was measured using fluorometer. The intracellular cAMP concentrations (compound-stimulated inhibition of forskolin-mediated cAMP production) were calculated by extrapolation from a standard curve using known cAMP concentrations. The EC50 values were obtained by fitting the data to a sigmoidal concentration-response curve with variable slope. The maximal achievable inhibition of forskolin-induced cAMP levels (Ymax) for each compound was expressed as relative percentage of inhibition attained using pyroglutamated apelin-13 ((Pyr1)apelin-13) peptide, which was set to 100%.
The examples disclosed below were tested in the APJ in vitro assays described above and were found having human APJ cyclic AMP (hcAMP) activity. The EC50 value of each compound is presented at the end of the example description.
The biological activity of the exemplified compounds of this invention determined by the assay described above is shown at the end of each example.

[1] = HEK293 cells stably expressing human APJ receptor; inhibition of forskolin-mediated cAMP production; Table 1; read-out: hAPJ cAMP EC50 Potency range
[2] = hAPJ cAMP EC50 Potency range, HEK293 cells stably expressing human APJ receptor; inhibition of forskolin-mediated cAMP production; Table 1
[3] = read-out: hAPJ cAMP EC50 Potency range; HEK293 cells stably expressing human APJ receptor; inhibition of forskolin-mediated cAMP production; Table 1

Q: How did the EC50 [1] turn out when `CCCCc1nc(O)c(S(=O)(=O)c2ccc(-c3ccccc3C(N)=O)cc2)c(O)c1N1CCCc2ccccc21` [Example 057, 4′-((6-butyl-5-(3,4-dihydroquinolin-1(2H)-yl)-2,4-dihydroxypyridin-3-yl)sulfonyl)-[1,1′-biphenyl]-2-carboxamide] was run?
A: Its EC50 is 0.01 to 10 nM.

Q: How did the EC50 [1] turn out when `CCN(c1ccccc1)c1c(-c2ccn(C)n2)nc(O)c(S(=O)(=O)c2ccc(-c3cccnc3C)cc2)c1O` [Example 058, 5-(ethyl(phenyl)amino)-6-(1-methyl-1H-pyrazol-3-yl)-3-((4-(2-methylpyridin-3-yl)phenyl)sulfonyl)pyridine-2,4-diol] was run?
A: The EC50 was 0.01 to 10 nM.

Q: With `CCN(c1ccccc1)c1c(-c2ccn(C)n2)nc(O)c(S(=O)(=O)c2ccc(-c3ccc(F)nc3C)cc2)c1O` [Example 059, 5-(ethyl(phenyl)amino)-3-((4-(6-fluoro-2-methylpyridin-3-yl)phenyl)sulfonyl)-6-(1-methyl-1H-pyrazol-3-yl)pyridine-2,4-diol] as the molecule, how does the EC50 [1] read?
A: The EC50 was 0.01 to 10 nM.

Q: `CCN(c1ccccc1)c1c(-c2ccn(C)n2)nc(O)c(S(=O)(=O)c2ccc(-c3ccccc3C(=O)N(C)C)cc2)c1O` [Example 060, 4′-((5-(ethyl(phenyl)amino)-2,4-dihydroxy-6-(1-methyl-1H-pyrazol-3-yl)pyridin-3-yl)sulfonyl)-N,N-dimethyl-[1,1′-biphenyl]-2-carboxamide] was tested. Which EC50 [1] did it give?
A: Its EC50 is 0.01 to 10 nM.

Q: For `CCCCc1nc(O)c(S(=O)(=O)c2ccc(-c3ccccc3C(=O)NC)cc2)c(O)c1N1CCCc2ccccc21` [Example 061, 4′-((6-butyl-5-(3,4-dihydroquinolin-1(2H)-yl)-2,4-dihydroxypyridin-3-yl)sulfonyl)-N-methyl-[1,1′-biphenyl]-2-carboxamide], which EC50 [1] is on record?
A: The EC50 was 0.01 to 10 nM.

Q: How did the EC50 [1] turn out when `CCN(c1ccccc1)c1c(CC2CC2)nc(O)c(S(=O)(=O)c2ccc(-c3ccccc3C(=O)N(C)C)cc2)c1O` [Example 062, 4′-((6-(cyclopropylmethyl)-5-(ethyl(phenyl)amino)-2,4-dihydroxypyridin-3-yl)sulfonyl)-N,N-dimethyl-[1,1′-biphenyl]-2-carboxamide] was run?
A: The EC50 was 0.01 to 10 nM.

Q: With `CCN(c1ccccc1)c1c(-c2ccn(C)n2)nc(O)c(S(=O)(=O)c2ccc(-c3ccnc(F)c3C)cc2)c1O` [Example 063, 5-(ethyl(phenyl)amino)-3-((4-(2-fluoro-3-methylpyridin-4-yl)phenyl)sulfonyl)-6-(1-methyl-1H-pyrazol-3-yl)pyridine-2,4-diol] as the molecule, how does the EC50 [1] read?
A: The EC50 was 0.01 to 10 nM.

Q: How did the EC50 [1] turn out when `CCN(c1ccccc1)c1c(-c2ccn(C)n2)nc(O)c(S(=O)(=O)c2ccc(-c3ccncc3C)cc2)c1O` [Example 064, 5-(ethyl(phenyl)amino)-6-(1-methyl-1H-pyrazol-3-yl)-3-((4-(3-methylpyridin-4-yl)phenyl)sulfonyl)pyridine-2,4-diol] was run?
A: The EC50 was 0.01 to 10 nM.

Q: For `CCCCc1nc(O)c(S(=O)(=O)c2ccc(-c3ccccc3C(N)=O)cc2)c(O)c1N(C)c1ccccc1` [Example 065, 4′-((6-butyl-2,4-dihydroxy-5-(methyl(phenyl)amino)pyridin-3-yl)sulfonyl)-[1,1′-biphenyl]-2-carboxamide], which EC50 [1] is on record?
A: Its EC50 is 0.01 to 10 nM.

Q: How did the EC50 [2] turn out when `CCCCc1nc(O)c(C(=O)N2CC[C@H](c3ccccc3)C2)c(O)c1N(CC)c1ccccc1` [Example 066, (R)-(6-butyl-5-(ethyl(phenyl)amino)-2,4-dihydroxypyridin-3-yl)(3-phenylpyrrolidin-1-yl)methanone] was run?
A: Its EC50 is 10 to 100 nM.

Q: How did the EC50 [2] turn out when `CCCCc1nc(O)c(C(=O)N2CCC(c3ccc(Cl)cn3)C2)c(O)c1N(CC)c1ccccc1` (stereo not drawn) [Example 067, (6-butyl-5-(ethyl(phenyl)amino)-2,4-dihydroxypyridin-3-yl)(3-(5-chloropyridin-2-yl)pyrrolidin-1-yl)methanone] was run?
A: Its EC50 is 0.01 to 10 nM.

Q: Which EC50 [1] does the source give for `CCCCc1nc(O)c(C(=O)N2CC[C@@H](c3ccccc3)C2)c(O)c1N(CCC)c1ccccc1` [Example 068, (S)-(6-butyl-2,4-dihydroxy-5-(phenyl(propyl)amino)pyridin-3-yl)(3-phenylpyrrolidin-1-yl)methanone] here?
A: The EC50 was 10 to 100 nM.

Q: How did the EC50 [1] turn out when `CCCCc1nc(O)c(C(=O)N2CC[C@H](c3ccccc3)C2)c(O)c1N(CCC)c1ccccc1` [Example 069, (R)-(6-butyl-2,4-dihydroxy-5-(phenyl(propyl)amino)pyridin-3-yl)(3-phenylpyrrolidin-1-yl)methanone] was run?
A: Its EC50 is 10 to 100 nM.

Q: With `CCCCc1nc(O)c(C(=O)N2CCC(c3ncc(Cl)cc3F)C2)c(O)c1N(CC)c1ccccc1` (stereo not drawn) [Example 070, (6-butyl-5-(ethyl(phenyl)amino)-2,4-dihydroxypyridin-3-yl)(3-(5-chloro-3-fluoropyridin-2-yl)pyrrolidin-1-yl)methanone] as the molecule, how does the EC50 [2] read?
A: The EC50 was 0.01 to 10 nM.

Q: With `CCCCc1nc(O)c(C(=O)N2CCC(c3ncc(F)cc3F)C2)c(O)c1N(CC)c1ccccc1` (stereo not drawn) [Example 071, (6-butyl-5-(ethyl(phenyl)amino)-2,4-dihydroxypyridin-3-yl)(3-(3,5-difluoropyridin-2-yl)pyrrolidin-1-yl)methanone] as the molecule, how does the EC50 [2] read?
A: Its EC50 is 0.01 to 10 nM.

Q: Which EC50 [3] does the source give for `CCCCc1nc(O)c(C(=O)N2CCC(c3ncc(Cl)cc3F)C2)c(O)c1N(CC)c1ccccc1` (stereo not drawn) [Example 072, (6-butyl-5-(ethyl(phenyl)amino)-2,4-dihydroxypyridin-3-yl)(3-(5-chloro-3-fluoropyridin-2-yl)pyrrolidin-1-yl)methanone] here?
A: The EC50 was 0.01 to 10 nM.

Q: `CCCCc1nc(O)c(C(=O)N2CCC(c3ncc(F)cc3F)C2)c(O)c1N(CC)c1ccccc1` (stereo not drawn) [Example 073, (6-butyl-5-(ethyl(phenyl)amino)-2,4-dihydroxypyridin-3-yl)(3-(3,5-difluoropyridin-2-yl)pyrrolidin-1-yl)methanone] was tested. Which EC50 [3] did it give?
A: Its EC50 is 0.01 to 10 nM.

Q: How did the EC50 [2] turn out when `CCCCc1nc(O)c(C(=O)N2CCN(Cc3cccc(Cl)c3Cl)CC2)c(O)c1N(CC)c1ccccc1` [Example 074, (6-butyl-5-(ethyl(phenyl)amino)-2,4-dihydroxypyridin-3-yl)(4-(2,3-dichlorobenzyl)piperazin-1-yl)methanone] was run?
A: Its EC50 is 10 to 100 nM.

Q: With `CCCCc1nc(O)c(C(=O)N2CCC(c3ccccc3F)C2)c(O)c1N(CC)c1ccccc1` (stereo not drawn) [Example 075, (6-butyl-5-(ethyl(phenyl)amino)-2,4-dihydroxypyridin-3-yl)(3-(2-fluorophenyl)pyrrolidin-1-yl)methanone] as the molecule, how does the EC50 [2] read?
A: Its EC50 is 0.01 to 10 nM.

Q: How did the EC50 [2] turn out when `CCCCc1nc(O)c(C(=O)N2CCC(c3ccc(Cl)cn3)C2)c(O)c1N(CC)c1ccccc1` (stereo not drawn) [Example 076, (6-butyl-5-(ethyl(phenyl)amino)-2,4-dihydroxypyridin-3-yl)(3-(5-chloropyridin-2-yl)pyrrolidin-1-yl)methanone] was run?
A: Its EC50 is 10 to 100 nM.

Q: With `CCCCc1nc(O)c(S(=O)(=O)c2ccc(Br)cc2)c(O)c1N(CC)c1ccccc1` [Example 077, 3-((4-bromophenyl)sulfonyl)-6-butyl-5-(ethyl(phenyl)amino)pyridine-2,4-diol] as the molecule, how does the EC50 [1] read?
A: Its EC50 is 10 to 100 nM.

Q: Which EC50 [1] does the source give for `CCCCc1nc(O)c(S(=O)(=O)c2ccc(-c3ccncc3C)cc2)c(O)c1N(CC)c1ccccc1` [Example 078, 6-butyl-5-(ethyl(phenyl)amino)-3-((4-(3-methylpyridin-4-yl)phenyl)sulfonyl)pyridine-2,4-diol] here?
A: Its EC50 is 0.01 to 10 nM.

Q: `CCCCc1nc(O)c(S(=O)(=O)c2ccc(-c3cccnc3C)cc2)c(O)c1N(CC)c1ccccc1` [Example 079, 6-butyl-5-(ethyl(phenyl)amino)-3-((4-(2-methylpyridin-3-yl)phenyl)sulfonyl)pyridine-2,4-diol] was tested. Which EC50 [1] did it give?
A: Its EC50 is 0.01 to 10 nM.

Q: How did the EC50 [1] turn out when `CCCCc1nc(O)c(S(=O)(=O)c2ccc(-c3ccnc(F)c3C)cc2)c(O)c1N(CC)c1ccccc1` [Example 080, 6-butyl-5-(ethyl(phenyl)amino)-3-((4-(2-fluoro-3-methylpyridin-4-yl)phenyl)sulfonyl)pyridine-2,4-diol] was run?
A: Its EC50 is 0.01 to 10 nM.

Q: `CCCCc1nc(O)c(S(=O)(=O)c2ccc(-c3ccnc(OC)c3)cc2)c(O)c1N(CC)c1ccccc1` [Example 081, 6-butyl-5-(ethyl(phenyl)amino)-3-((4-(2-methoxypyridin-4-yl)phenyl)sulfonyl)pyridine-2,4-diol] was tested. Which EC50 [1] did it give?
A: The EC50 was 0.01 to 10 nM.

Q: With `CCCCc1nc(O)c(S(=O)(=O)c2ccc(-n3cc(Cl)ccc3=O)cc2)c(O)c1N(CC)c1ccccc1` [Example 082, 1-(4-((6-butyl-5-(ethyl(phenyl)amino)-2,4-dihydroxypyridin-3-yl)sulfonyl)phenyl)-5-chloropyridin-2(1H)-one] as the molecule, how does the EC50 [1] read?
A: The EC50 was 0.01 to 10 nM.

Q: How did the EC50 [1] turn out when `CCCCc1nc(O)c(S(=O)(=O)c2ccc(-c3ccccc3C#N)cc2)c(O)c1N(CC)c1ccccc1` [Example 083, 4′-((6-butyl-5-(ethyl(phenyl)amino)-2,4-dihydroxypyridin-3-yl)sulfonyl)-[1,1′-biphenyl]-2-carbonitrile] was run?
A: The EC50 was 0.01 to 10 nM.
